# Source: US20250263370A1 (Tay Therapeutics Limited, priority 2022, published 2025)
# Read-outs that look alike come from different tables or passages of the source.
# Experiments:
# [1] = biological target: BRD4 BD1 (Homo sapiens (Human), UniProt O60885); assay: NanoBRET bromodomain assay, NanoLuc-BRD4-BD1 fusion in HEK293 cells; assay type: cell-based; conditions: top concentration 10 μM
# Description: (§1) HEK293 cells were transfected using NanoLuc-BRD4-BD1 or NanoLuc-BRD4-BD2 fusion vectors and incubated at 37° C. in an atmosphere of 5% CO2 for 20-24 hours. The transfected cells were then dispensed into 96-well plates using 90 μl cell suspension per well containing 2×10^5 cells/mL in Opti-MEM and 1× final concentration of tracer. 90 μL per well of cell suspension without tracer was also dispensed into at least 3 wells as “No tracer control samples” for background correction. Serially diluted test compounds were prepared at 1000× concentration in DMSO and further diluted to 10× concentration in Opti-MEM. […] Plates were then incubated at 37° C. +5% 002 incubator for 2 hours. […] Donor emission (450 nm) and acceptor emission (610 nm) were measured using PHERAstar (BMG LabTech). For data analysis, the raw BRET ratio was generated and converted to milliBRET units with background correction using the formula: [(Acceptorsample/Donorsample−(Acceptorno tracer control/Donorno tracer control)]×1000. The mBU data was plotted as a function of compound concentration and IC50s for BRET assay were determined by nonlinear regression analysis of concentration response curves using the Collaborative Drug Discovery Vault software. The fold-selectivity was calculated by dividing the IC50 for BRD4 BD1 by the IC50 for BRD4 BD2.
# [2] = biological target: BRD4 BD2 (Homo sapiens (Human), UniProt O60885); assay: NanoBRET bromodomain assay, NanoLuc-BRD4-BD2 fusion in HEK293 cells; conditions: for IC50: NanoBRET, HEK293 cells, top concentration 10 μM; for Fold selectivity: IC50 for BRD4 BD1 divided by IC50 for BRD4 BD2, qualitative if an IC50 is at the upper limit;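 for all read-outs here: tracer displacement BRET read in transfected cells after 2 h compound exposure at 37 °C, signal in milliBRET units corrected against no-tracer background wells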
# Description: as §1
SMILES,IC50 [1] [µM],IC50 ([2]; BRD4 BD2 (IC50)) [µM],Fold selectivity [2],"BRD4 BD2 % Activity Remaining @ 10 uM ([2]; 10 uM, (2) = second batch) [%]",IC50 ([2]; read-out: BRD4 BD2 (IC50)) [µM]
"CCNC(=O)c1cc(OC(C)c2ccc(F)cc2F)c(C(=O)NC)[nH]1 (racemic) [Example 14, 3-(1-(2,4-difluorophenyl)ethoxy)-N^5-ethyl-N^2-methyl-1H-pyrrole-2,5-dicarboxamide]",≥ 10,0.2 to 1,X (Fold >2 and ≤50),,
"CNC(=O)c1[nH]c(C(=O)NCC(F)(F)F)cc1O[C@@H](C)c1ccc(Cl)cc1 [Example 60, (S)-3-(1-(4-chlorophenyl)ethoxy)-N^2-methyl-N^5-(2,2,2-trifluoroethyl)-1H-pyrrole-2,5-dicarboxamide]",≥ 10,0.05 to 0.2,XX (Fold >50 and ≤200),,
CNC(=O)c1[nH]c(-c2ncc(C)[nH]2)cc1O[C@@H](C)c1ccccc1 [23 (2)*],≥ 10,> 10,— (Fold ≥0 and ≤2),61,
"CCNC(=O)c1cc(OC(C)c2ccc(Br)cc2)c(C(=O)NC)[nH]1 (single isomer, unassigned) [Example 50, 3-(1-(4-bromophenyl)ethoxy)-N^5-ethyl-N^2-methyl-1H-pyrrole-2,5-dicarboxamide]",≥ 10,> 10,— (Fold ≥0 and ≤2),,
"CCNC(=O)c1cc(OC(CCOC)c2ccccc2)c(C(=O)NC)[nH]1 (racemic) [Example 8, N^5-ethyl-3-(3-methoxy-1-phenylpropoxy)-N^2-methyl-1H-pyrrole-2,5-dicarboxamide]",≥ 10,> 10,— (Fold ≥0 and ≤2),,
"CCNC(=O)c1cc(OC(C)c2ccc(I)cc2)c(C(=O)NC)[nH]1 (single isomer, unassigned) [Example 52, N^5-ethyl-3-(1-(4-iodophenyl)ethoxy)-N^2-methyl-1H-pyrrole-2,5-dicarboxamide]",≥ 10,> 10,— (Fold ≥0 and ≤2),,
"CCNC(=O)c1cc(OC(C)c2cccc(OC)c2)c(C(=O)NC)[nH]1 (racemic) [Example 7, N^5-ethyl-3-(1-(3-methoxyphenyl)ethoxy)-N^2-methyl-1H-pyrrole-2,5-dicarboxamide]",≥ 10,0.2 to 1,X (Fold >2 and ≤50),,
"CCNC(=O)c1cc(OC(C)c2ccccc2C#N)c(C(=O)NC)[nH]1 (racemic) [Example 11, 3-(1-(2-cyanophenyl)ethoxy)-N^5-ethyl-N^2-methyl-1H-pyrrole-2,5-dicarboxamide]",≥ 10,> 10,— (Fold ≥0 and ≤2),,
"CCNC(=O)c1cc(OC(C)c2ccccc2Cl)c(C(=O)NC)[nH]1 (racemic) [Example 6, 3-(1-(2-chlorophenyl)ethoxy)-N^5-ethyl-N^2-methyl-1H-pyrrole-2,5-dicarboxamide]",≥ 10,0.2 to 1,X (Fold >2 and ≤50),,
"CCNC(=O)c1cc(OC(c2ccccc2)C2CC2)c(C(=O)NC)[nH]1 (racemic) [Example 63, 3-(cyclopropyl(phenyl)methoxy)-N^5-ethyl-N^2-methyl-1H-pyrrole-2,5-dicarboxamide]",≥ 10,> 10,— (Fold ≥0 and ≤2),,
"CCNC(=O)c1cc(OC(C)c2ccccc2C(F)(F)F)c(C(=O)NC)[nH]1 (racemic) [Example 2, N^5-ethyl-N^2-methyl-3-(1-(2-(trifluoromethyl)phenyl)ethoxy)-1H-pyrrole-2,5-dicarboxamide]",≥ 10,0.05 to 0.2,XX (Fold >50 and ≤200),,
"CCNC(=O)c1cc(OC(C)c2ccc(C)cc2)c(C(=O)NC)[nH]1 (single isomer, unassigned) [Example 25, N^5-ethyl-N^2-methyl-3-(1-(p-tolyl)ethoxy)-1H-pyrrole-2,5-dicarboxamide]",≥ 10,< 0.05,XXX (Fold >200),,
"CNC(=O)c1[nH]c(C(=O)N[C@H]2CC[C@H](O)CC2)cc1OC(C)c1ccc(Cl)cc1F (single isomer, unassigned) [Example 37, 3-(1-(4-chloro-2-fluorophenyl)ethoxy)-N^5-(trans-4-hydroxycyclohexyl)-N^2-methyl-1H-pyrrole-2,5-dicarboxamide]",≥ 10,1 to 10,— (Fold ≥0 and ≤2),,

# More lines, now with the values ahead:
IC50 [1] [µM],IC50 ([2]; BRD4 BD2 (IC50)) [µM],Fold selectivity [2],"BRD4 BD2 % Activity Remaining @ 10 uM ([2]; 10 uM, (2) = second batch) [%]",IC50 ([2]; read-out: BRD4 BD2 (IC50)) [µM],SMILES
≥ 10,0.2 to 1,X (Fold >2 and ≤50),,,"CCNC(=O)c1cc(OC(C)c2cccc(C(F)(F)F)c2)c(C(=O)NC)[nH]1 (racemic) [Example 125, N^5-ethyl-N^2-methyl-3-(1-(3-(trifluoromethyl)phenyl)ethoxy)-1H-pyrrole-2,5-dicarboxamide]"
≥ 10,0.05 to 0.2,XX (Fold >50 and ≤200),,,"CNC(=O)c1[nH]c(-c2nc(C)c(C)[nH]2)cc1O[C@@H](C)c1ccccc1 [Example 87, (S)-5-(4,5-dimethyl-1H-imidazol-2-yl)-N-methyl-3-(1-phenylethoxy)-1H-pyrrole-2-carboxamide]"
≥ 10,> 10,— (Fold ≥0 and ≤2),,,"CNC(=O)c1[nH]c(C(=O)N[C@@H](C)C(F)(F)F)cc1O[C@@H](C)c1ccccc1 [Example 120, N^2-methyl-3-((S)-1-phenylethoxy)-N^5-((S)-1,1,1-trifluoropropan-2-yl)-1H-pyrrole-2,5-dicarboxamide]"
≥ 10,> 10,— (Fold ≥0 and ≤2),,,"CNC(=O)c1[nH]c(-c2cc(C)nn2C)cc1O[C@H](C)c1ccccc1 [Example 82, (R)-5-(1,3-dimethyl-1H-pyrazol-5-yl)-N-methyl-3-(1-phenylethoxy)-1H-pyrrole-2-carboxamide]"
≥ 10,> 10,— (Fold ≥0 and ≤2),,,"CCNC(=O)c1cc(OC(C)c2ccnnc2)c(C(=O)NC)[nH]1 (single isomer, unassigned) [Example 78, N^5-ethyl-N^2-methyl-3-(1-(pyridazin-4-yl)ethoxy)-1H-pyrrole-2,5-dicarboxamide]"
≥ 10,,— (Fold ≥0 and ≤2),,> 10,"CCNC(=O)c1cc(OC(C)c2c(Cl)cccc2Cl)c(C(=O)NC)[nH]1 (single isomer, unassigned) [Example 67, 3-(1-(2,6-dichlorophenyl)ethoxy)-N^5-ethyl-N^2-methyl-1H-pyrrole-2,5-dicarboxamide]"
≥ 10,1 to 10,X (Fold >2 and ≤50),,,"CCNC(=O)c1cc(OC(CO)c2ccccc2)c(C(=O)NC)[nH]1 (racemic) [Example 73, N^5-ethyl-3-(2-hydroxy-1-phenylethoxy)-N^2-methyl-1H-pyrrole-2,5-dicarboxamide]"
≥ 10,0.2 to 1,X (Fold >2 and ≤50),,,"CCNC(=O)c1cc(OC(C)c2cccc(F)c2)c(C(=O)NC)[nH]1 (racemic) [Example 123, N^5-ethyl-3-(1-(3-fluorophenyl)ethoxy)-N^2-methyl-1H-pyrrole-2,5-dicarboxamide]"
≥ 10,,— (Fold ≥0 and ≤2),,> 10,"CNC(=O)c1[nH]c(C(=O)N[C@H]2CC[C@H](O)CC2)cc1O[C@@H](C)c1ccnnc1 (single isomer, unassigned) [Example 94, N^5-(4-hydroxycyclohexyl)-N^2-methyl-3-(1-(pyridazin-4-yl)ethoxy)-1H-pyrrole-2,5-dicarboxamide]"
≥ 10,0.2 to 1,X (Fold >2 and ≤50),,,"CCNC(=O)c1cc(OC(CC)c2ccccc2)c(C(=O)NC)[nH]1 (racemic) [Example 126, N^5-ethyl-N^2-methyl-3-(1-phenylpropoxy)-1H-pyrrole-2,5-dicarboxamide]"
≥ 10,> 10,— (Fold ≥0 and ≤2),,,"CNC(=O)c1[nH]c(C(=O)N[C@H]2CC[C@H](O)CC2)cc1O[C@@H](C)c1ccnnc1 (single isomer, unassigned) [Example 91, N^5-(4-hydroxycyclohexyl)-N^2-methyl-3-(1-(pyridazin-4-yl)ethoxy)-1H-pyrrole-2,5-dicarboxamide]"
≥ 10,> 10,— (Fold ≥0 and ≤2),,,"CCNC(=O)c1cc(OC(C)c2ccc(OC)cc2)c(C(=O)NC)[nH]1 (single isomer, unassigned) [Example 76, N^5-ethyl-3-(1-(4-methoxyphenyl)ethoxy)-N^2-methyl-1H-pyrrole-2,5-dicarboxamide]"
≥ 10,1 to 10,X (Fold >2 and ≤50),,,"CNC(=O)c1[nH]c(-c2ccccc2F)cc1O[C@@H](C)c1ccccc1 [Example 85, (S)-5-(2-fluorophenyl)-N-methyl-3-(1-phenylethoxy)-1H-pyrrole-2-carboxamide]"
≥ 10,,— (Fold ≥0 and ≤2),,> 10,"CNC(=O)c1[nH]c(C(=O)N[C@H]2CC[C@H](O)CC2)cc1O[C@@H](C)c1ccnnc1 (single isomer, unassigned) [Example 93, N^5-(4-hydroxycyclohexyl)-N^2-methyl-3-(1-(pyridazin-4-yl)ethoxy)-1H-pyrrole-2,5-dicarboxamide]"
≥ 10,0.05 to 0.2,XX (Fold >50 and ≤200),,,"CCNC(=O)c1cc(OC(C)c2ccc(Cl)cc2)c(C(=O)NC)[nH]1 (racemic) [Example 122, 3-(1-(4-chlorophenyl)ethoxy)-N^5-ethyl-N^2-methyl-1H-pyrrole-2,5-dicarboxamide]"
≥ 10,> 10,— (Fold ≥0 and ≤2),,,"CCNC(=O)c1cc(OC(C)c2c(Cl)cccc2Cl)c(C(=O)NC)[nH]1 (single isomer, unassigned) [Example 66, 3-(1-(2,6-dichlorophenyl)ethoxy)-N^5-ethyl-N^2-methyl-1H-pyrrole-2,5-dicarboxamide]"
